Experimental findings from article PMC9095528, “Spectrofluorimetric Approach for Quantification of Cyclizine in the Presence of its Toxic Impurities in Human Plasma; in silico Study and ADMET Calculations” (Journal of Fluorescence, 2022) are described below.

Data set [1] is described as follows: Stability of CYZ in plasma (short-term room temperature and freeze-thaw). The class given is in vitro ADME, human. Particulars: rat plasma. The method, then:
To cover the anticipated sample treatment and storage environments during the processing of samples, the stability of CYZ in human plasma was investigated as short‐term stability at room temperature and freeze–thaw stability. In all stability tests, three replicates of three concentrations at low, medium, and high levels were treated and compared to recently prepared QC samples.

The nature of data set [2]: Pharmacokinetics of CYZ in human plasma after I.V administration (non-compartmental analysis). The class given is in vivo. As to the method: One mL of CYZ was intravenously injected into three human volunteers in good health and Using a calibrated heparinized tube, a 5 mL sample of human blood was drawn from each volunteer after 0.5, 1, 2, 4, 8 hrs. All the collected samples were centrifuged for 20 min at 4000 rpm. 1 mL of each sample was quantitatively poured into a centrifuge tube, and 1 mL acetonitrile was applied to precipitate plasma proteins, until centrifugation at 4000 rpm for 20 minutes. The clear plasma supernatant was transferred to Eppendorf tubes and held at […] until the rest of the procedure was completed.
Non-compartmental analysis (NCA) was used to measure pharmacokinetic parameters such as half-life, C max, T max, elimination rate constant, clearance, apparent volume of distribution, and area under the curve using Thermo Kinetica software (version 5.0) and PK solver software after taking human plasma samples from previously injected volunteers. In deciding the proper usage of the drug and in forecasting the impact of pharmacokinetic drug interactions, the results of pharmacokinetic research have been helpful.

[3] abbreviates: intravenous, I.V administration of Emetrex 50 mg.

Consider `CN1CCN(C(c2ccccc2)c2ccccc2)CC1` [CYZ, 1-benzhydryl-4-methylpiperazine], for which the share remaining at 6 h, 30 ng/mL in data set [1] (30 ng/mL, room temperature for 6 h) turned out to be 97 ± 1.13%. The molecule also displayed a share remaining at 30 ng/mL in data set [1] (30 ng/mL, three freeze thaw cycle) of 97.1 ± 1.32%. In data set [1] (400 ng/mL, room temperature for 6 h), the amount remaining at 6 h, 400 ng/mL came to 98.03 ± 0.98%. In data set [1] (400 ng/mL, three freeze thaw cycle), this molecule gave an amount remaining at 400 ng/mL of 96.5 ± 0.97%. The fraction remaining at 6 h, 800 ng/mL in data set [1] (800 ng/mL, room temperature for 6 h) was determined as 96.1 ± 1.88%. The molecule further registered a fraction remaining at 800 ng/mL in data set [1] (800 ng/mL, three freeze thaw cycle) of 97.2 ± 1.76%. The “Elimination rate constant (K)” value in data set [2] (I.V administration of Emetrex 50 mg) amounted to 0.274 ± 0.10. Also, the Tmax in data set [2] (intravenous, 50 mg, after I.V injection) stood at 2 h. In data set [2] (setting [3]), this molecule showed an AUC(0-inf) of 213 ± 7.21 µg·h/mL, an AUC(0-t) of 22300 ± 1220 ng·h/mL, a Cmax of 72.8 ± 1.56 ng/mL and a half-life of 152 ± 25.8 min. In addition, the Vd in data set [2] (intravenous, I.V administration of Emetrex 50 mg, read-out: Volume of distribution (Vd)) worked out at 0.695 ± 0.23 L.
